pEC50, pIC50: −log10 of the molar value. No end group written: not given here.
Columns and labels:
Format in all cases: cell-based
[1] = target: T1, VEGFR2 and VLA-4 (Homo sapiens, UniProt P05556+P13612+P35968); assay: Activation / inhibition of Sdc1-mediated coupling of VEGFR2 to VLA-4 (FIGS. 6A-H)
T1 construct: the α4-integrin (VLA-4), which is expressed on myeloma cells; endogenous in cells; host or cells: CAG human myeloma cells (HPSE^low / HPSE^high) plated on fibronectin
Experimental: FIGS. 6A-G. Peptides derived from the active site in Sdc1 activate or inhibit adhesion and invasion. (FIG. 6A) Transwell migration assays towards FN (for 16 hrs) were performed for HPSE low or high cells in the presence of 0, 0.3, 3, and 30 μM of S1ED^210-240. Cells migrating to the bottom side of the filter were counted from five random images for each treatment. (FIG. 6B) The sequence of S1ED210-240 is shown (SEQ ID NO: 3), as well as […] truncation mutants of the peptide (SEQ ID NOs: 5, 2, 4 and 7). Amino acids shown in red appear necessary for the spreading and invasive activity. (FIG. 6C) Images of HPSE^low and HPSE^high cells plated on FN for 2 hr. (FIG. 6D) HPSE^low cells were treated with 0, 0.3, 3, 10 and 30 μM of S1ED^210-236, S1ED^210-233, or S1ED^214-240, plated on FN for 2 hr, fixed and stained with fluorescent phalloidin. Cells from five random images were quantified for cell attachment and cell spreading. (FIG. 6E) HPSE^high cells were treated with 0, 3, 10, and 30 μM of S1ED^210-236, S1ED^210-233, and S1ED^214-240, plated on FN for 2 hr, then fixed, imaged and quantified as in FIG. 6D. (FIG. 6F) Transwell migration assays towards FN (for 16 hr) were performed for HPSE^low or HPSE^high cells in the presence of 30 μM of S1ED^210-236, S1ED^210-233, S1ED^214-240 and Vandetanib. (FIG. 6G) HPSE^low cell lysates were incubated overnight with glutathione beads coated with GST or GST-S1ED in the absence or presence of 30 μM of S1ED^210-236, S1ED^210-233, and S1ED^214-240. Capture of VLA-4 or VEGFR2 was detected by immunoblotting. Sequences in FIG. 6B are 210-240 (SEQ ID NO: 3), 210-236 (SEQ ID NO: 2), 210-233 (SEQ ID NO: 4), 214-240 (SEQ ID NO: 5) and 214-236 (SEQ ID NO: 7).
It is envisioned that a peptide that contains binding sites for both VEGFR2 and VLA-4, such as 210-236, has the capacity to bridge both receptors and link them together. This activates signaling that the cells use for migration and invasion. […]

[2] = system: P3x63Ag8 mouse myeloma cells; assay: Adhesion of P3x63Ag8 myeloma cells to FN; conditions: 30 uM peptide, 2.5 hr
Experimental: (§1) FIG. 7A-B. S1ED^214-236, specific for VEGFR2 coupling to VLA-4, blocks myeloma cell invasion but not adhesion. (FIG. 7A) P3x63Ag8 mouse myeloma cells are plating on the VLA-4 ligand FN in the presence or absence of 30 uM S1ED^210-233 (SEQ ID No: 4) or S1ED^214-236 (SEQ ID No: 7) for 2.5 hr. (FIG. 7B) P3x63Ag8 myeloma cells are plated on FN-coated filters in the presence of HPSE inhibitor OGT2115, VLA-4 blocking antibody P1H4, VEGFR2 inhibitor Vandetanib or S1ED^210-233 or S1ED^214-236 and allowed to migrate through the filter for 16 hr. Small black dots are the pores in the filter.
Nitrocellulose-coated slides were coated for 2 hr at 37° C. with 40 μg/ml FN (kindly provided by Dr. Donna Peters, University of Wisconsin-Madison) or 5 μg/ml recombinant VCAM-1/Fc chimera (R&D Systems) in calcium and magnesium-free PBS (CMF-PBS; 135 mM NaCl, 2.7 mM KCl, 10.2 mM Na2HPO4-7H20 and 1.75 mM KH2PO4, pH7.4). Slides were blocked for 1 hr at 37° C. with RPMI 1640 containing 1% heat-denatured BSA (plating medium). Cells in plating medium were allowed to attach and spread for 2.5 hr at 37° C. Slides were fixed in 4% EM grade paraformaldehyde (Electron Microscopy Sciences) in CMF-PBS and labeled for 30 min in 0.13 μM rhodamine phalloidin (Invitrogen) in CMF-PBS. Coverslips were mounted in non-fluorescing mounting medium (Immumount; Thermo Shandon) and allowed to dry. […]

[3] = system: P3x63Ag8 mouse myeloma cells; assay: Invasion of P3x63Ag8 myeloma cells through FN-coated filters; conditions: 16 hr
Experimental: as §1
The bottom chambers of Transwell filter chambers (8 μm pores; Corning) were coated with 40 μg/ml of FN. Cells (5×10^5 in 0.2 ml plating medium) were placed in the upper chamber and incubated for 16 hr at 37° C. in the CO2 incubator. After incubation, cells in the upper chamber were removed and cells on the bottom side of the filter were fixed in 4% paraformaldehyde (PFA) and stained with 0.1% Crystal Violet before imaging. Cells from at least five random fields were counted.

T1 sequence (P35968 20-1356): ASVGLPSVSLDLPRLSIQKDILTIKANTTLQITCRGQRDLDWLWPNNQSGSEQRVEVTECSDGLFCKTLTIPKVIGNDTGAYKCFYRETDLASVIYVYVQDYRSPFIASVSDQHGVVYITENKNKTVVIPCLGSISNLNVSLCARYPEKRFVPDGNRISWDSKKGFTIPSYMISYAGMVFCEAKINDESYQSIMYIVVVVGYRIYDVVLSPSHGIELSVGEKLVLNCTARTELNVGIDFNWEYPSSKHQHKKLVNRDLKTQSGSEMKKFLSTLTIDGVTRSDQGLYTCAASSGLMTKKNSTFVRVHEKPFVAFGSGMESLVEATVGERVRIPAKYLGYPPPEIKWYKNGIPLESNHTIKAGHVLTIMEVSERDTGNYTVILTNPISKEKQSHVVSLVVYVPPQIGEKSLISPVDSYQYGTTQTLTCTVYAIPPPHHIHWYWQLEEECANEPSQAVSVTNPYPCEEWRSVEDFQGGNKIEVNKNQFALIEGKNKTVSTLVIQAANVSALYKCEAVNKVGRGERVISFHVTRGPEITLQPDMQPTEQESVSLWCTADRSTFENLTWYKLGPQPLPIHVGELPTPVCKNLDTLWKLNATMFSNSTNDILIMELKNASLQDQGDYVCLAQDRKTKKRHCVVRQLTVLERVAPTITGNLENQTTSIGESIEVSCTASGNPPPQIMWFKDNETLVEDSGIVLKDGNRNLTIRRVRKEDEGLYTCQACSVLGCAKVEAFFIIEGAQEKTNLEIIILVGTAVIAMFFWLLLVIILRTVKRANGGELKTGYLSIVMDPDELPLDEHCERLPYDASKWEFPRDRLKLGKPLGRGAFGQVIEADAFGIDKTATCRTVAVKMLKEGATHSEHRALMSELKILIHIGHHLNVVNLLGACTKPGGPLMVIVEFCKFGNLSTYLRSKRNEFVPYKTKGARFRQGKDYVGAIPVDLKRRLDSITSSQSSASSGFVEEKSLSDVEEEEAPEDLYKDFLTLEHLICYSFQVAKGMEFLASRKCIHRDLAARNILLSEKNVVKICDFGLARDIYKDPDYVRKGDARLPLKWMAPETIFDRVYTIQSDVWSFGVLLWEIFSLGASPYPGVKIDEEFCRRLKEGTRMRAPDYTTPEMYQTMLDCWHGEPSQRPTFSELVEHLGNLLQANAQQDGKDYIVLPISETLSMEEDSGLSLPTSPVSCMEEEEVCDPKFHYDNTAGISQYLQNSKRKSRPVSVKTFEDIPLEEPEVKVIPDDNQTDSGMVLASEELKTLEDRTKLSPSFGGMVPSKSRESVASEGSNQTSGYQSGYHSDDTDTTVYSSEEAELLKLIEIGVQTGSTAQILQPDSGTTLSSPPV
T1 sequence (P13612 34-1032): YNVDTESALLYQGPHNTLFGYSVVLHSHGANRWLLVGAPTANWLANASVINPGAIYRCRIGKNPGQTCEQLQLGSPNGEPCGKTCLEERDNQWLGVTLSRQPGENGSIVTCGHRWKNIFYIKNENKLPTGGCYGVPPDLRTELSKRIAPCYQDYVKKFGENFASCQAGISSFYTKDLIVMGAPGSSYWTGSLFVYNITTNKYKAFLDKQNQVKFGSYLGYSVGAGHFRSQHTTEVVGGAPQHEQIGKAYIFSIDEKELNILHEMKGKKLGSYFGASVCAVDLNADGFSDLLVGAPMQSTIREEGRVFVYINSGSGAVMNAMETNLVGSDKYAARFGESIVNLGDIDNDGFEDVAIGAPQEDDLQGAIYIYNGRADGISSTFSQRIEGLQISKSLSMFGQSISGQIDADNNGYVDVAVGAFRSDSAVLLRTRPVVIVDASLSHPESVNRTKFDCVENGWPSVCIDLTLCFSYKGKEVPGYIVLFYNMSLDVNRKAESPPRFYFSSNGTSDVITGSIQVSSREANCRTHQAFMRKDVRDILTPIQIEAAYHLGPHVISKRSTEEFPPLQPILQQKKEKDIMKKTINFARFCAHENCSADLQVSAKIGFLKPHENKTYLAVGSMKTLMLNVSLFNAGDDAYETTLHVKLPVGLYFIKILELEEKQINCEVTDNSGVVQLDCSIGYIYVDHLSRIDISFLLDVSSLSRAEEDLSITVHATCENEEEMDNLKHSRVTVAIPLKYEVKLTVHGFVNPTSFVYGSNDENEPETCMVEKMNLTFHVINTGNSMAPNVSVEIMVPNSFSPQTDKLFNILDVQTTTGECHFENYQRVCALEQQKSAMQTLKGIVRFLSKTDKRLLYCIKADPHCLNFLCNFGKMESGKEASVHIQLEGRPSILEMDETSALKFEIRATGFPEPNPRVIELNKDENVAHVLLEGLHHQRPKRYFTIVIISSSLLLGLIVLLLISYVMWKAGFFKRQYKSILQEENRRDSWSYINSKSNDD
T1 sequence (P05556 21-798): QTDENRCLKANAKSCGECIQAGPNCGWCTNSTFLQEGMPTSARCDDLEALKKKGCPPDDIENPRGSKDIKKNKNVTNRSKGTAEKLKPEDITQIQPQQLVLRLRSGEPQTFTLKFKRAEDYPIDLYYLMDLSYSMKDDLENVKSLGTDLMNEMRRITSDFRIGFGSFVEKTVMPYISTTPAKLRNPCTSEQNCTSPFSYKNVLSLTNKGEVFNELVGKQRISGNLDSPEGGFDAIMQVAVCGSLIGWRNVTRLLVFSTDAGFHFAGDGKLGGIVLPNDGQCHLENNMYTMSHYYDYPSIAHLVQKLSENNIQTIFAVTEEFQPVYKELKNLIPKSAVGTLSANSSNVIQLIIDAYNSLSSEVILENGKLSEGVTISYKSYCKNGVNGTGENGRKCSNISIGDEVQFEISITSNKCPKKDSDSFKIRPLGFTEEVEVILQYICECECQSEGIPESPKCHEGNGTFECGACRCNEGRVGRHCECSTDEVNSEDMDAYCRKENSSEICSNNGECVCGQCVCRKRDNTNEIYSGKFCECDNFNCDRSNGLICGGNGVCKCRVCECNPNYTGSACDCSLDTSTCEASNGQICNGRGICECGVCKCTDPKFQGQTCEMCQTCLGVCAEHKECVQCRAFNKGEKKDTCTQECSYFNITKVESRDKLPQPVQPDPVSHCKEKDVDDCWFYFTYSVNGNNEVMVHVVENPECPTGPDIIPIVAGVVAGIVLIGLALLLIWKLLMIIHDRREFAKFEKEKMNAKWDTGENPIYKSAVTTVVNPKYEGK

| pEC50 ([1]; FIGS. 6A-H, read-out: EC50 of bridging VEGFR2 and VLA-4, activating signaling used for migration and invasion) | pIC50 ([1]; read-out: IC50 as inhibitor of the VLA-4/VEGFR2 coupling mechanism) | Substance | adhesion of P3X cells to FN [2] | invasion / migration of P3X cells through FN-coated filters [3] |
| --- | --- | --- | --- | --- |
| 6.52 | 5.00 | DFTFETSGENTAVVAVEPDRRNQSPVD [S1ED^210-236] |  |  |
|  |  | S1ED^210-233: syndecan-1 ectodomain peptide, residues 210-233 (SEQ ID NO: 4) (DFTFETSGENTAVVAVEPDRRNQS) | blocks the adhesion of the myeloma cells to FN | blocked by either peptide |
